Laboratory results: patent US12287338B2, “Method and compositions for predicting anti-cancer efficacy of compounds targeting apoptosis pathway” (Ascentage Pharma (Suzhou) Co., Ltd., priority 2020, dated 2025)

Tests used:
Format in all cases: cell-based
[1] = test system: Bcl-xL:BIM and Bcl-2:BIM complex; experiment: Bcl-2:BIM and Bcl-xL:BIM complex analysis by MSD advanced ELISA in Toledo cells; conditions: Toledo cell line, 24 hours, 0.025, 0.04 and 0.06 uM
Method: (§1) A diffuse large B cell lymphoma line, Toledo, and an acute lymphocytic leukemia line, RS4; 11, were chosen for the study. Cells were treated for 24 hours with Compound B4 or ABT-737 at indicated concentrations (0.025 uM, 0.04 uM and 0.06 uM, respectively) and harvested for complex analysis. Both Bcl-2:BIM and Bcl-xL:BIM complex were analyzed using MSD advanced ELISA methods.

[2] = biological target: T1, Bcl-xL:BIM and Bcl-2:BIM complex (Homo sapiens, UniProt Q07817); experiment: as above; conditions: Toledo and RS4; 11 cell lines (FIGS. 4A, 4B), 24 hours
T1 construct: A diffuse large B cell lymphoma line, Toledo, and an acute lymphocytic leukemia line, RS4; endogenous in cells; host or cells: Toledo
Method: as §1

[3] = test system: Bcl-xL:BIM and Bcl-2:BIM complex; experiment: Bcl-2:BIM and Bcl-xL:BIM complex analysis by MSD advanced ELISA in RS4; 11 cells; conditions: 11 cell line, 24 hours, 0.025, 0.04 and 0.06 uM
Method: as §1

T1 sequence (Q07817 whole entry, one chain of several): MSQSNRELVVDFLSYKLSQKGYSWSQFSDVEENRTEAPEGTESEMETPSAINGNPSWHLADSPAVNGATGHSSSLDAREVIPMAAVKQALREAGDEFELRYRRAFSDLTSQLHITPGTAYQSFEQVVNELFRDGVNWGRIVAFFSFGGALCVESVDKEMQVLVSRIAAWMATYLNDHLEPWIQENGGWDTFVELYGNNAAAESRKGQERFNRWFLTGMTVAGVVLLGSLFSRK

## Cc1c(S(C)(=O)=O)c(-c2cc(F)cc(N3CCN(c4ccc(NS(=O)(=O)c5ccc(N[C@H](CCN6CCC(C(=O)O)CC6)CSc6ccccc6)c(S(=O)(=O)C(F)(F)F)c5)cc4)CC3)c2)c(-c2ccc(Cl)cc2)n1C(C)C [Compound B4, (R)-1-(3-(4-(N-(4-(4-(3-(2-(4-chlorophenyl)-1-isopropyl-5-methyl-4-(methylsulfonyl)-1H-pyrrol-3-yl)-5-fluorophenyl)piperazin-1-yl)phenyl)sulfamoyl)-2-(trifluoromethylsulfonyl)phenylamino)-4-(phenylthio)butyl)piperidine-4-carboxylic acid]
[1]
  disruption of Bcl-xL:BIM vs Bcl-2:BIM complex: more potently disrupted Bcl-xL:BIM than Bcl-2:BIM complex
[2]
  disruption of Bcl-xL:BIM complex compared with ABT-737: disrupted Bcl-xL:BIM complex more intensely than ABT-737
[3]
  disruption of Bcl-xL:BIM vs Bcl-2:BIM complex: more potently disrupted Bcl-xL:BIM than Bcl-2:BIM complex
